Test systems include MCF7 breast; PC-3 prostate; NCI/ADR-RES ovarian; MDA-N.
Holding throughout (experiment): NCI tumour cell line growth inhibition, 48 h

Structures are written as SMILES. “And” between values parts separate entries of the source, which are not always exact repeats. Equal entries are not always repeated.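 The compound was tested at five concentrations on cells cultured in 96-well plates, with a 48-hour exposure period. GI50: concentration for 50% inhibition of growth. At the TGI there is no net growth.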 Where only a bound is given, the exact number is not on record here.

On to `O=C(NC(=S)Nc1ccc(-c2nc3ccccc3[nH]2)cc1)c1ccc2ccccc2c1`, for which the GI50 is 4.56 µM in the assay with MCF7 breast, 3.26 µM in the assay with PC-3 prostate and 4.52 µM with NCI/ADR-RES ovarian. The results for the TGI with MCF7 breast, in the assay with PC-3 prostate and in the assay with NCI/ADR-RES ovarian were greater than 100 µM, 35.5 µM and greater than 100 µM, respectively.
Regarding `O=C(/C=C/c1cccnc1)c1ccccc1`, the GI50 is 2.92 µM with MCF7 breast, 11 µM in the assay with PC-3 prostate and 14.3 µM in the assay with NCI/ADR-RES ovarian. Also, the TGI is 12.4 µM with MCF7 breast, 26.5 µM with PC-3 prostate and 36 µM in the assay with NCI/ADR-RES ovarian.
For `CC[n+]1c(/C=C/c2ccc(N3CCCC3)cc2)cccc1/C=C/c1ccc(N2CCCC2)cc1`, the values for the GI50 with MCF7 breast, in the assay with PC-3 prostate and with NCI/ADR-RES ovarian were 0.213 µM, 0.194 µM and 0.466 µM, respectively. Further, the TGI in the assay on MCF7 breast turned out to be 1.35 µM; with PC-3 prostate, 1.23 µM; in the assay with NCI/ADR-RES ovarian, 1.95 µM.
For the molecule `Nc1n[nH]c2ccc([C@H]3[C@@H]4C5CCC(C5)[C@@H]4c4c(ccc5[nH]ncc45)N3S(=O)(=O)C3CC3)cc12` (some centres undefined), the values for the GI50 in the assay on MCF7 breast, with PC-3 prostate and with NCI/ADR-RES ovarian were 0.2 µM, 0.185 µM and 0.231 µM, respectively. The TGI in the assay on MCF7 breast is greater than 35.9 µM; in the assay with PC-3 prostate, 9.85 µM; in the assay with NCI/ADR-RES ovarian, greater than 50 µM.
Take `COc1ccc2c(c1)OC(N)=C(C#N)C2c1ccc(F)c(F)c1` (centres undefined): the figures for the GI50 with MCF7 breast, with PC-3 prostate and in the assay with NCI/ADR-RES ovarian were 0.333 µM, 0.569 µM and 0.351 µM, respectively. In addition, the TGI is greater than 67.8 µM in the assay on MCF7 breast, greater than 100 µM in the assay with PC-3 prostate and 10.7 µM in the assay with NCI/ADR-RES ovarian.
Consider `CCCC(c1cc(C(C)(C)C)c(O)cc1C)c1cc(C(C)(C)C)c(O)cc1C`, for which the TGI turned out to be 3.91 µM in the assay with MDA-N, 4.85 µM in the assay on MCF7 breast, 8.78 µM in the assay with PC-3 prostate and 12.1 µM in the assay with NCI/ADR-RES ovarian.
Take `Nc1ncnc2occ(-c3ccc(NC(=O)Nc4cc(C(F)(F)F)ccc4F)cc3)c12`: the GI50 in the assay with MCF7 breast is 2.37 µM and 1.16 µM; with PC-3 prostate it was 5.92 µM and 5.35 µM; with NCI/ADR-RES ovarian, 5.44 µM and 3.09 µM. Also, the TGI in the assay with MCF7 breast is 17.7 µM and 12.6 µM; in the assay with PC-3 prostate, 15.8 µM and 16.1 µM; in the assay with NCI/ADR-RES ovarian, 20.2 µM and 13.3 µM.
Turning to `CC(=O)NS(=O)(=O)c1ccc(-n2nc(-c3ccccc3)cc2-c2cc(O)ccc2O)cc1`, the GI50 with MCF7 breast, with PC-3 prostate and with NCI/ADR-RES ovarian was greater than 100 µM throughout. Also, the TGI in the assay on MCF7 breast, in the assay with PC-3 prostate and with NCI/ADR-RES ovarian was greater than 100 µM in each case.
Regarding `CSc1nc(SC)c2cnn(-c3ccnc4cc(Cl)ccc34)c2n1`, the GI50 was 2.61 µM in the assay on MCF7 breast, greater than 82.3 µM in the assay on PC-3 prostate and 51.2 µM in the assay on NCI/ADR-RES ovarian. Besides, the TGI in the assay with MCF7 breast is greater than 41 µM; in the assay on PC-3 prostate, greater than 100 µM; with NCI/ADR-RES ovarian, greater than 100 µM.
`COc1cc2cc(Oc3ccc(NC(=O)Nc4ccc(F)c(C(F)(F)F)c4)cc3)c(C)nc2cc1OCCN1CCOCC1`: the GI50 in the assay on MCF7 breast was 1.46 µM; with PC-3 prostate, 1.44 µM; in the assay on NCI/ADR-RES ovarian, 2.56 µM. In addition, the TGI in the assay with MCF7 breast turned out to be 3.48 µM; in the assay with PC-3 prostate, 10.1 µM; with NCI/ADR-RES ovarian, 12.1 µM.
Turning to `Cc1cc(C)c2c(=O)cc(-c3ccc(F)cc3)[nH]c2n1`, the results for the GI50 with MDA-N and in the assay with PC-3 prostate were 25 µM and 30.1 µM, respectively. In addition, the TGI was 67.9 µM in the assay with MDA-N, greater than 100 µM with MCF7 breast, greater than 100 µM in the assay on PC-3 prostate and greater than 100 µM with NCI/ADR-RES ovarian.
In the case of `O=C1NC(=N[C@@H]2C[C@H]2c2ccccc2)S/C1=C\c1ccc2ncccc2c1`, the GI50 was 0.795 µM with MCF7 breast, 3.27 µM in the assay on PC-3 prostate and 2.9 µM in the assay with NCI/ADR-RES ovarian. In addition, the TGI in the assay on MCF7 breast came to 4.95 µM; with PC-3 prostate it was 9.09 µM; in the assay with NCI/ADR-RES ovarian it was 10.1 µM.
On to `CCOC(=O)c1cc2c(OC)cc(OC)cc2oc1=O`, for which the TGI in the assay on MDA-N, with MCF7 breast, in the assay on PC-3 prostate and in the assay on NCI/ADR-RES ovarian was greater than 100 µM throughout.
Turning to `Cc1cccc2c1NC(=O)[C@@H](NC(=O)[C@H](CCC(F)(F)F)[C@H](CCC(F)(F)F)C(N)=O)N=C2c1cccc(F)c1`, the GI50 is 24.1 µM with MCF7 breast, 39.5 µM in the assay on PC-3 prostate and 26.3 µM with NCI/ADR-RES ovarian. In addition, the TGI in the assay with MCF7 breast, in the assay with PC-3 prostate and with NCI/ADR-RES ovarian was greater than 100 µM in each case.
As for `C#CCOCCCC(=O)O`, the TGI with MDA-N, with MCF7 breast, in the assay with PC-3 prostate and in the assay on NCI/ADR-RES ovarian was greater than 100 µM throughout.
Regarding `COc1cc(C)cc(C(=O)OCc2ccccc2)c1C1=C(Cl)C(=O)C(Cl)=CC1=O`, the TGI with MDA-N, with MCF7 breast, in the assay with PC-3 prostate and in the assay with NCI/ADR-RES ovarian was greater than 10 µM each time.
For `O=C1/C(=C\c2ccc(Cl)cc2)CN(C(=O)c2ccccc2)C/C1=C\c1ccc(Cl)cc1`, the values for the GI50 in the assay with MCF7 breast, with PC-3 prostate and in the assay on NCI/ADR-RES ovarian were 0.437 µM, 2.57 µM and 3.59 µM, respectively. Moreover, the TGI was 3.09 µM in the assay with MCF7 breast, 10.1 µM in the assay with PC-3 prostate and 19.7 µM in the assay with NCI/ADR-RES ovarian.
Take `CC(=O)N[C@@H](Cc1ccc(OP(=O)(O)O)cc1)C(=O)N[C@H]1CCC(=O)N2CCC[C@@H](C(=O)NCc3cccc4ccccc34)N2C1=O`: the GI50 in the assay on MCF7 breast, with PC-3 prostate and in the assay with NCI/ADR-RES ovarian was greater than 25 µM throughout. Moreover, the TGI in the assay with MCF7 breast, in the assay with PC-3 prostate and in the assay on NCI/ADR-RES ovarian was greater than 25 µM in each case.
With `CSc1nc(SC)c2c(C)cn(Cc3ccccc3)c2n1`, the TGI in the assay on MDA-N, in the assay with MCF7 breast, with PC-3 prostate and in the assay with NCI/ADR-RES ovarian was greater than 100 µM in each case.
`O=P1(O)c2ccccc2CSCc2ccccc21`: the TGI with MDA-N, with MCF7 breast, in the assay on PC-3 prostate and in the assay with NCI/ADR-RES ovarian was greater than 100 µM in each case.
Regarding `CCOC(=O)Nc1ccc2c3c(cccc13)-c1ccccc1-2`, the figures for the GI50 in the assay on MCF7 breast, in the assay on PC-3 prostate and in the assay on NCI/ADR-RES ovarian were 1.64 µM, 9.45 µM and 4.32 µM, respectively. For the same molecule, the TGI with MCF7 breast, in the assay on PC-3 prostate and in the assay on NCI/ADR-RES ovarian was greater than 100 µM throughout.

(Values after PubChem BioAssay (NCI).)
